Results: ChEMBL document CHEMBL5154817, “Structure-activity relationship studies on O-alkylamino-tethered salicylamide derivatives with various amino acid linkers as potent anticancer agents” (Eur J Med Chem, 2022)
pIC50: −log10 of the molar value.

How the values were obtained:
[1] = tested on: MCF7; assay: Antiproliferative activity against human MCF7 cells assessed as inhibition of cell growth incubated for 72 hrs by MTT assay; assay type: functional, cell-based; details: MCF7, 72 h
[2] = tested on: MDA-MB-231; assay: Antiproliferative activity against human MDA-MB-231 cells assessed as inhibition of cell growth incubated for 72 hrs by MTT assay; assay type: functional, cell-based; details: MDA-MB-231, 72 h

A pIC50 [1] of less than 5.00 and a pIC50 [2] of less than 5.00 were found for `CC(C)(C)OC(=O)N1CCC(Oc2ccc(Cl)cc2C(=O)N[C@@H](Cc2ccccc2)C(=O)Nc2ccc([N+](=O)[O-])cc2Cl)CC1` in this work.
A pIC50 [1] of less than 5.00 and a pIC50 [2] of less than 5.00 were found for `CC(C)[C@H](NC(=O)c1cc(Cl)ccc1OCCN)C(=O)Nc1ccc([N+](=O)[O-])cc1Cl` in this work.
A pIC50 [1] of 5.06 and a pIC50 [2] of less than 5.00 were found for `CC(C)(C)OC(=O)NCCOc1ccc(Cl)cc1C(=O)N[C@@H](Cc1ccc(O)cc1)C(=O)Nc1ccc([N+](=O)[O-])cc1Cl` in this work.
A pIC50 [1] of less than 5.00 and a pIC50 [2] of less than 5.00 were found for `COC(=O)NCCOc1ccc(Cl)cc1C(=O)N[C@H](C(=O)Nc1ccc([N+](=O)[O-])cc1Cl)C(C)C` in this work.
A pIC50 [1] of 5.51 and a pIC50 [2] of 5.22 were found for `CC(C)(C)OC(=O)CC[C@H](NC(=O)c1cc(Cl)ccc1OCCN)C(=O)Nc1ccc([N+](=O)[O-])cc1Cl` in this work.
A pIC50 [1] of less than 5.00 and a pIC50 [2] of 5.25 were found for `CC(C)[C@H](NC(=O)c1cc(Cl)ccc1OCCCCN)C(=O)Nc1ccc([N+](=O)[O-])cc1Cl` in this work.
A pIC50 [1] of less than 5.00 and a pIC50 [2] of less than 5.00 were found for `CC(C)(C)OC(=O)NCCOc1ccc(Cl)cc1C(=O)N[C@@H](Cc1ccccc1)C(=O)Nc1cc(C(F)(F)F)cc(C(F)(F)F)c1` in this work.
A pIC50 [1] of less than 5.00 and a pIC50 [2] of less than 5.00 were found for `CC(C)(C)OC(=O)CC[C@H](NC(=O)c1cc(Cl)ccc1OCCNC(=O)OC(C)(C)C)C(=O)Nc1ccc([N+](=O)[O-])cc1Cl` in this work.
A pIC50 [1] of 5.03 and a pIC50 [2] of 5.20 were found for `NCCOc1ccc(Cl)cc1C(=O)NCC(=O)Nc1ccc2c(c1)S(=O)(=O)C=C2` in this work.
A pIC50 [1] of 4.94 and a pIC50 [2] of 5.10 were found for `CC(C)[C@H](NC(=O)c1cc(Cl)ccc1OCCNC(=O)OC(C)(C)C)C(=O)Nc1cc(F)cc(C(F)(F)F)c1` in this work.
A pIC50 [1] of less than 5.00 and a pIC50 [2] of 5.43 were found for `CC(C)[C@H](NC(=O)c1cc(Cl)ccc1OCCNC(=O)OC(C)(C)C)C(=O)Nc1ccc(F)c(F)c1` in this work.
A pIC50 [1] of less than 5.00 and a pIC50 [2] of less than 5.00 were found for `CC(C)[C@H](NC(=O)c1cc(Cl)ccc1OCCCNC(=O)OC(C)(C)C)C(=O)Nc1ccc([N+](=O)[O-])cc1Cl` in this work.
A pIC50 [1] of less than 5.00 and a pIC50 [2] of less than 5.00 were found for `C[C@H](NC(=O)c1cc(Cl)ccc1OCCN)C(=O)Nc1ccc([N+](=O)[O-])cc1Cl` in this work.
A pIC50 [1] of less than 5.00 and a pIC50 [2] of 5.26 were found for `CC(C)[C@H](NC(=O)c1cc(Cl)ccc1OCCN)C(=O)Nc1ccc(C(F)(F)F)cc1Cl` in this work.
A pIC50 [1] of less than 5.00 and a pIC50 [2] of less than 5.00 were found for `CC(C)(C)OC(=O)NCCOc1ccc(Cl)cc1C(=O)N[C@@H](Cc1ccccc1)C(=O)Nc1ccc([N+](=O)[O-])cc1Cl` in this work.
A pIC50 [1] of less than 5.00 and a pIC50 [2] of less than 5.00 were found for `CC(=O)NCCOc1ccc(Cl)cc1C(=O)N[C@H](C(=O)Nc1ccc([N+](=O)[O-])cc1Cl)C(C)C` in this work.
A pIC50 [1] of 5.79 and a pIC50 [2] of 5.49 were found for `CC(C)(C)OCC(NC(=O)c1cc(Cl)ccc1OCCN)C(=O)Nc1ccc([N+](=O)[O-])cc1Cl` (single isomer, unassigned) in this work.
A pIC50 [1] of 5.18 and a pIC50 [2] of 5.10 were found for `NCCOc1ccc(Cl)cc1C(=O)N[C@@H](Cc1ccccc1)C(=O)Nc1ccc([N+](=O)[O-])cc1Cl` in this work.
A pIC50 [1] of 5.31 and a pIC50 [2] of 5.30 were found for `NCCOc1ccc(Cl)cc1C(=O)N[C@H](Cc1ccccc1)C(=O)Nc1ccc([N+](=O)[O-])cc1Cl` in this work.
A pIC50 [1] of less than 5.00 and a pIC50 [2] of less than 5.00 were found for `CC(C)(C)OCC(NC(=O)c1cc(Cl)ccc1OCCNC(=O)OC(C)(C)C)C(=O)Nc1ccc([N+](=O)[O-])cc1Cl` (single isomer, unassigned) in this work.
A pIC50 [1] of less than 5.00 and a pIC50 [2] of less than 5.00 were found for `CSCC[C@H](NC(=O)c1cc(Cl)ccc1OCCNC(=O)OC(C)(C)C)C(=O)Nc1ccc([N+](=O)[O-])cc1Cl` in this work.
A pIC50 [1] of less than 5.00 and a pIC50 [2] of less than 5.00 were found for `CC(C)C[C@H](NC(=O)c1cc(Cl)ccc1OCCNC(=O)OC(C)(C)C)C(=O)Nc1ccc([N+](=O)[O-])cc1Cl` in this work.
A pIC50 [1] of less than 5.00 and a pIC50 [2] of less than 5.00 were found for `CC(C)[C@H](NC(=O)c1cc(Cl)ccc1OCCNC(=O)OC(C)(C)C)C(=O)Nc1cc(C(F)(F)F)cc(C(F)(F)F)c1` in this work.
A pIC50 [1] of less than 5.00 and a pIC50 [2] of 5.17 were found for `CC(C)[C@H](NC(=O)c1cc(Cl)ccc1OCCCN)C(=O)Nc1ccc([N+](=O)[O-])cc1Cl` in this work.
A pIC50 [1] of 5.35 and a pIC50 [2] of 5.49 were found for `O=C(N[C@@H](Cc1ccccc1)C(=O)Nc1ccc([N+](=O)[O-])cc1Cl)c1cc(Cl)ccc1OC1CCNCC1` in this work.
A pIC50 [1] of 5.35 and a pIC50 [2] of 5.27 were found for `C=C(NC(=O)c1cc(Cl)ccc1OCCNC(=O)OC(C)(C)C)C(=O)Nc1ccc([N+](=O)[O-])cc1Cl` in this work.
A pIC50 [1] of 5.84 and a pIC50 [2] of 5.68 were found for `CC(C)(C)OC(=O)NCCOc1ccc(Cl)cc1C(=O)NCC(=O)Nc1ccc2c(c1)S(=O)(=O)C=C2` in this work.
A pIC50 [1] of less than 5.00 and a pIC50 [2] of 5.28 were found for `CC(C)[C@H](NC(=O)c1cc(Cl)ccc1OC1CCNCC1)C(=O)Nc1ccc([N+](=O)[O-])cc1Cl` in this work.
A pIC50 [1] of 4.98 and a pIC50 [2] of 5.40 were found for `CC[C@@H](C)[C@H](NC(=O)c1cc(Cl)ccc1OCCNC(=O)OC(C)(C)C)C(=O)Nc1ccc([N+](=O)[O-])cc1Cl` in this work.
A pIC50 [1] of 5.00 and a pIC50 [2] of 5.31 were found for `CC(C)COC(=O)NCCOc1ccc(Cl)cc1C(=O)N[C@H](C(=O)Nc1ccc([N+](=O)[O-])cc1Cl)C(C)C` in this work.
A pIC50 [1] of less than 5.00 and a pIC50 [2] of less than 5.00 were found for `CC(C)(C)OC(=O)NCCOc1ccc(Cl)cc1C(=O)N[C@@H](CO)C(=O)Nc1ccc([N+](=O)[O-])cc1Cl` in this work.
A pIC50 [1] of less than 5.00 and a pIC50 [2] of less than 5.00 were found for `CSCC[C@H](NC(=O)c1cc(Cl)ccc1OCCN)C(=O)Nc1ccc([N+](=O)[O-])cc1Cl` in this work.
A pIC50 [1] of less than 5.00 and a pIC50 [2] of less than 5.00 were found for `CC(C)[C@H](NC(=O)c1cc(Cl)ccc1OCCNC(=O)OC(C)(C)C)C(=O)Nc1ccc(C(F)(F)F)cc1Cl` in this work.
A pIC50 [1] of less than 5.00 and a pIC50 [2] of less than 5.00 were found for `CC(C)[C@H](NC(=O)c1cc(Cl)ccc1OCCCCNC(=O)OC(C)(C)C)C(=O)Nc1ccc([N+](=O)[O-])cc1Cl` in this work.
A pIC50 [1] of 5.22 and a pIC50 [2] of 5.27 were found for `CC(C)[C@H](NC(=O)c1cc(Cl)ccc1OCCN)C(=O)Nc1cc(C(F)(F)F)cc(C(F)(F)F)c1` in this work.
A pIC50 [1] of less than 5.00 and a pIC50 [2] of less than 5.00 were found for `C[C@H](NC(=O)c1cc(Cl)ccc1OCCNC(=O)OC(C)(C)C)C(=O)Nc1ccc([N+](=O)[O-])cc1Cl` in this work.
A pIC50 [1] of less than 5.00 and a pIC50 [2] of less than 5.00 were found for `CC(C)(C)OC(=O)N1CCC(Oc2ccc(Cl)cc2C(=O)N[C@@H](Cc2ccccc2)C(=O)Nc2cc(C(F)(F)F)cc(C(F)(F)F)c2)CC1` in this work.
A pIC50 [1] of less than 5.00 and a pIC50 [2] of less than 5.00 were found for `CC(C)[C@H](NC(=O)c1cc(Cl)ccc1OCCN)C(=O)Nc1ccc(F)c(F)c1` in this work.
A pIC50 [1] of 5.36 and a pIC50 [2] of 5.23 were found for `CC(C)[C@H](NC(=O)c1cc(Cl)ccc1OCCN)C(=O)Nc1ccc2c(c1)S(=O)(=O)C=C2` in this work.
A pIC50 [1] of 5.53 and a pIC50 [2] of 5.31 were found for `NCCOc1ccc(Cl)cc1C(=O)N[C@@H](Cc1ccccc1)C(=O)Nc1cc(C(F)(F)F)cc(C(F)(F)F)c1` in this work.
A pIC50 [1] of less than 5.00 and a pIC50 [2] of 5.36 were found for `CC(C)[C@H](NC(=O)c1cc(Cl)ccc1OCCN)C(=O)Nc1cc(F)cc(C(F)(F)F)c1` in this work.
A pIC50 [1] of less than 5.00 and a pIC50 [2] of less than 5.00 were found for `CC(C)C[C@H](NC(=O)c1cc(Cl)ccc1OCCN)C(=O)Nc1ccc([N+](=O)[O-])cc1Cl` in this work.
A pIC50 [1] of less than 5.00 and a pIC50 [2] of less than 5.00 were found for `CC(C)[C@H](NC(=O)c1cc(Cl)ccc1OCCNC(=O)OCc1ccccc1)C(=O)Nc1ccc([N+](=O)[O-])cc1Cl` in this work.
A pIC50 [1] of 5.09 and a pIC50 [2] of 5.75 were found for `O=C(Nc1ccc([N+](=O)[O-])cc1Cl)c1cc(Cl)ccc1O` [NICLOSAMIDE] in this work.
A pIC50 [1] of less than 5.00 and a pIC50 [2] of 5.21 were found for `CC[C@@H](C)[C@H](NC(=O)c1cc(Cl)ccc1OCCN)C(=O)Nc1ccc([N+](=O)[O-])cc1Cl` in this work.
A pIC50 [1] of less than 5.00 and a pIC50 [2] of less than 5.00 were found for `CC(C)[C@H](NC(=O)c1cc(Cl)ccc1OC1CCN(C(=O)OC(C)(C)C)CC1)C(=O)Nc1ccc([N+](=O)[O-])cc1Cl` in this work.
